# Reference: patent US9096602B2, “Substituted pyrrolo[2,3-B]pyrazines as ATR kinase inhibitors” (Vertex Pharmaceuticals Incorporated, priority 2011, dated 2015)
# Molecular target: T1, ATR kinase (full-length ATR) (Homo sapiens, UniProt Q13535)
# T1 construct: Assays were carried out at 25° C. in the presence of 5 nM full-length ATR
# Experiment: ATR Inhibition Assay (radioactive-phosphate incorporation)
# Format: biochemical
# Settings: not given
# Method in brief: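 Radiometric 33P filter assay with 5 nM full-length ATR in 50 mM Tris/HCl pH 7.5, 10 mM MgCl2, 1 mM DTT at 25 °C. Final 10 μM [γ-33P]ATP and 800 μM peptide; 10 min compound preincubation, ATP start, stopped at 24 h with phosphoric acid/ATP. Ki(app) from non-linear regression of background-corrected initial rates.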
# T1 sequence (Q13535 whole entry): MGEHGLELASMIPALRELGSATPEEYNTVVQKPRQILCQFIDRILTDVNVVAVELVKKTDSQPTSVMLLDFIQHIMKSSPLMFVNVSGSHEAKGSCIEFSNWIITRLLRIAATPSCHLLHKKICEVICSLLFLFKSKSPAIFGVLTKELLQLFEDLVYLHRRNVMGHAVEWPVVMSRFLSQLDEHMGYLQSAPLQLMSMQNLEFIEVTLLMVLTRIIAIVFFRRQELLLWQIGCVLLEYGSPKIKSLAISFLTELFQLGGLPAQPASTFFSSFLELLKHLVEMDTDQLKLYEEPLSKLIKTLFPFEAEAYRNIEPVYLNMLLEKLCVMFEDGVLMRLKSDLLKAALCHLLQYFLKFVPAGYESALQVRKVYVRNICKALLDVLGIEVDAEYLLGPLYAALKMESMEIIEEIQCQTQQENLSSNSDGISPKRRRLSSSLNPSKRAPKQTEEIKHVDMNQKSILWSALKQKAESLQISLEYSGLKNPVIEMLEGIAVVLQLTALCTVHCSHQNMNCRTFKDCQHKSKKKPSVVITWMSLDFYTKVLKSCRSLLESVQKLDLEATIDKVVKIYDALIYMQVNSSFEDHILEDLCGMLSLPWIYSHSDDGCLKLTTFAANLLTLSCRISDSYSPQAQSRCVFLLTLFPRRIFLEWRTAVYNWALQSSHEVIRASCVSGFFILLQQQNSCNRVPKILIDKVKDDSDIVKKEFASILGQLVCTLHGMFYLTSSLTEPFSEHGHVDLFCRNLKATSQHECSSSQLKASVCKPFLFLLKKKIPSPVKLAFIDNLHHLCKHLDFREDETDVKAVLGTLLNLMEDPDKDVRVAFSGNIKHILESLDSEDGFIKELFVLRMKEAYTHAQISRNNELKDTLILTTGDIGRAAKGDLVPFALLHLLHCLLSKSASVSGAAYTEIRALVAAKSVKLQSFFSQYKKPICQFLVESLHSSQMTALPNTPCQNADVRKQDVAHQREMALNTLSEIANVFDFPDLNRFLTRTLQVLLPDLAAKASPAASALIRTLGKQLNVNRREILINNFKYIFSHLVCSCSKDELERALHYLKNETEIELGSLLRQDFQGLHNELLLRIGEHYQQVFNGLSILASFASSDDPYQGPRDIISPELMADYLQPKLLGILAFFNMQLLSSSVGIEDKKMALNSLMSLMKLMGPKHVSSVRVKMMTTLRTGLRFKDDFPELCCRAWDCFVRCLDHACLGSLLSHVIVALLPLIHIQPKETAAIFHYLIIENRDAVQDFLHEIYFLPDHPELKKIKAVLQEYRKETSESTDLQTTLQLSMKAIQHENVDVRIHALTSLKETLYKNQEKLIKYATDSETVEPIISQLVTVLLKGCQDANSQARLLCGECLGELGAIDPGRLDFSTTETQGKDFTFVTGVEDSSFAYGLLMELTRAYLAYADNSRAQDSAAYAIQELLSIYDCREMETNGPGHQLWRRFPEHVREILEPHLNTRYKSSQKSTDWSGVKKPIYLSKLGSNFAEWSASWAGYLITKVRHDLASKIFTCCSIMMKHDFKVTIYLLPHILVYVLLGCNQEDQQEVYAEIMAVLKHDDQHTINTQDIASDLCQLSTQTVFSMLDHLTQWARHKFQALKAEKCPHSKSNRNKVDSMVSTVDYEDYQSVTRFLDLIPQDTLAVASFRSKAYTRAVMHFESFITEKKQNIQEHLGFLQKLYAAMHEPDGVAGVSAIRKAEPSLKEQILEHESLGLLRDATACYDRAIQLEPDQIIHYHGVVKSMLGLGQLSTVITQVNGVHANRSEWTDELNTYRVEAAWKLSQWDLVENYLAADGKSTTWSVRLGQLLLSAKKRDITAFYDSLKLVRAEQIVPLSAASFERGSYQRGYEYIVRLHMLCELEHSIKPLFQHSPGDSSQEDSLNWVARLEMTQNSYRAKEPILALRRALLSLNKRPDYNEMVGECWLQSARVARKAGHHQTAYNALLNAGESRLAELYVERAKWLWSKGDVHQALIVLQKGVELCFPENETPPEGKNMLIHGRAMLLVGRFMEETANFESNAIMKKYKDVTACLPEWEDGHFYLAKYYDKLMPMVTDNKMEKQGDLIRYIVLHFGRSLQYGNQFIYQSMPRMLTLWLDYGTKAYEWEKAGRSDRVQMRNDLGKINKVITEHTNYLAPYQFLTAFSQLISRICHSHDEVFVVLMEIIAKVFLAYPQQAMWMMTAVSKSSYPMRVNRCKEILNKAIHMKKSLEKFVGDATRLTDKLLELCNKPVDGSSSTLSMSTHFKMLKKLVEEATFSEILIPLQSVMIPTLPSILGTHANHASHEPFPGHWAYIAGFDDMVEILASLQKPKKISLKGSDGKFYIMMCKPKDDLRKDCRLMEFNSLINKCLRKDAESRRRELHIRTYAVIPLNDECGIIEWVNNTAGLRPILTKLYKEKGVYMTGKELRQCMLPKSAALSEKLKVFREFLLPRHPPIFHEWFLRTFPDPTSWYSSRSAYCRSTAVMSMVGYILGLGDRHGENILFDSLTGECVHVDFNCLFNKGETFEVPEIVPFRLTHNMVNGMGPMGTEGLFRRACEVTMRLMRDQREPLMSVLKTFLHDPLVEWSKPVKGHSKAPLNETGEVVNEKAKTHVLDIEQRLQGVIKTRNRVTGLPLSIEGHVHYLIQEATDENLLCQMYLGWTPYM
row,Compound,Ki
1,"CC(C)S(=O)(=O)c1ccc(-c2cnc3[nH]cc(C(=O)N4CCC5(CC4)OCCO5)c3n2)cc1 [Compound I-128, 1,4-dioxa-8-azaspiro[4.5]decan-8-yl-[2-(4-isopropylsulfonylphenyl)-5H-pyrrolo[2,3-b]pyrazin-7-yl]methanone]",< 100 nM

# Same assay, conditions: Ki(app); 5 nM full-length ATR, 10 μM ATP, 800 μM target peptide, 25° C.; class symbols; read-out: ATR Inhibition Ki
row,Compound,Ki
1,"CCC[C@@H](CO)NC(=O)c1c[nH]c2ncc(-c3ccc(S(=O)(=O)C(C)C)cc3)nc12 [Compound I-112, N-[(1S)-1-(hydroxymethyl)butyl]-2-(4-isopropylsulfonylphenyl)-5H-pyrrolo[2,3-b]pyrazine-7-carboxamide]",< 100 nM
2,"CC(C)S(=O)(=O)c1ccc(-c2cnc3[nH]cc(C(=O)N4CCN(C)CC4)c3n2)cc1 [Compound I-114, [2-(4-isopropylsulfonylphenyl)-5H-pyrrolo[2,3-b]pyrazin-7-yl]-(4-methylpiperazin-1-yl)methanone]",500 to 5000 nM
3,"CC(C)S(=O)(=O)c1ccc(-c2cnc3[nH]cc(C(=O)N4CCCCC4CO)c3n2)cc1 (stereo not drawn) [Compound I-115, [2-(hydroxymethyl)-1-piperidyl]-[2-(4-isopropylsulfonylphenyl)-5H-pyrrolo[2,3-b]pyrazin-7-yl]methanone]",500 to 5000 nM
4,"CC[C@@H](CO)NC(=O)c1c[nH]c2ncc(-c3ccc(S(=O)(=O)C(C)C)cc3)nc12 [Compound I-117, N-[(1S)-1-(hydroxymethyl)propyl]-2-(4-isopropylsulfonylphenyl)-5H-pyrrolo[2,3-b]pyrazine-7-carboxamide]",100 to 500 nM
5,"CC(C)S(=O)(=O)c1ccc(-c2cnc3[nH]cc(C(=O)NC4CCOC4)c3n2)cc1 (stereo not drawn) [Compound I-118, 2-(4-isopropylsulfonylphenyl)-N-tetrahydrofuran-3-yl-5H-pyrrolo[2,3-b]pyrazine-7-carboxamide]",100 to 500 nM
6,"COCCNC(=O)c1c[nH]c2ncc(-c3ccc(S(=O)(=O)C(C)C)cc3)nc12 [Compound I-119, 2-(4-isopropylsulfonylphenyl)-N-(2-methoxyethyl)-5H-pyrrolo[2,3-b]pyrazine-7-carboxamide]",100 to 500 nM
7,"CC(C)S(=O)(=O)c1ccc(-c2cnc3[nH]cc(C(=O)NC4CNC4)c3n2)cc1 [Compound I-122, N-(azetidin-3-yl)-2-(4-isopropylsulfonylphenyl)-5H-pyrrolo[2,3-b]pyrazine-7-carboxamide]",500 to 5000 nM
8,"CC(C)S(=O)(=O)c1ccc(-c2cnc3[nH]cc(C(=O)N[C@@H](C(N)=O)c4ccccc4)c3n2)cc1 [Compound I-123, N-[(1R)-2-amino-2-oxo-1-phenyl-ethyl]-2-(4-isopropylsulfonylphenyl)-5H-pyrrolo[2,3-b]pyrazine-7-carboxamide]",100 to 500 nM
9,"CC(C)S(=O)(=O)c1ccc(-c2cnc3[nH]cc(C(=O)N[C@H](C(N)=O)c4ccccc4)c3n2)cc1 [Compound I-124, N-[(1S)-2-amino-2-oxo-1-phenyl-ethyl]-2-(4-isopropylsulfonylphenyl)-5H-pyrrolo[2,3-b]pyrazine-7-carboxamide]",100 to 500 nM
10,"CC(C)S(=O)(=O)c1ccc(-c2cnc3[nH]cc(C(=O)NCc4ccc5c(c4)OCO5)c3n2)cc1 [Compound I-125, N-(1,3-benzodioxol-5-ylmethyl)-2-(4-isopropylsulfonylphenyl)-5H-pyrrolo[2,3-b]pyrazine-7-carboxamide]",< 100 nM
11,"CC(c1cccc(Cl)c1)N(C)C(=O)c1c[nH]c2ncc(-c3ccc(S(=O)(=O)C(C)C)cc3)nc12 (stereo not drawn) [Compound I-126, N-[1-(3-chlorophenyl)ethyl]-2-(4-isopropylsulfonylphenyl)-N-methyl-5H-pyrrolo[2,3-b]pyrazine-7-carboxamide]",< 100 nM
12,"CC(C)S(=O)(=O)c1ccc(-c2cnc3[nH]cc(C(=O)NC4CCC(CO)CC4)c3n2)cc1 (stereo not drawn) [Compound I-127, N-[4-(hydroxymethyl)cyclohexyl]-2-(4-isopropylsulfonylphenyl)-5H-pyrrolo[2,3-b]pyrazine-7-carboxamide]",< 100 nM
13,"CC(C)S(=O)(=O)c1ccc(-c2cnc3[nH]cc(C(=O)NCc4ccccc4CO)c3n2)cc1 [Compound I-129, N-[[2-(hydroxymethyl)phenyl]methyl]-2-(4-isopropylsulfonylphenyl)-5H-pyrrolo[2,3-b]pyrazine-7-carboxamide]",< 100 nM
14,"CC(c1ccc(Cl)cc1)N(C)C(=O)c1c[nH]c2ncc(-c3ccc(S(=O)(=O)C(C)C)cc3)nc12 (stereo not drawn) [Compound I-135, N-[1-(4-chlorophenyl)ethyl]-2-(4-isopropylsulfonylphenyl)-N-methyl-5H-pyrrolo[2,3-b]pyrazine-7-carboxamide]",< 100 nM

# Same assay, conditions: Ki(app); 5 nM full-length ATR, 10 μM ATP, 800 μM target peptide, 25° C.; given as numeric lower bound without unit; read-out: ATR Inhibition Ki
row,Compound,Ki
1,"CC(C)S(=O)(=O)c1ccc(-c2cnc3[nH]cc(C(=O)NC4CN(C(=O)OC(C)(C)C)C4)c3n2)cc1 [Compound I-111, tert-butyl 3-[[2-(4-isopropylsulfonylphenyl)-5H-pyrrolo[2,3-b]pyrazine-7-carbonyl]amino]azetidine-1-carboxylate]",> 250 nM
2,"CC(C)S(=O)(=O)c1ccc(-c2cnc3[nH]cc(C(=O)NC4(CO)CC4)c3n2)cc1 [Compound I-113, N-[1-(hydroxymethyl)cyclopropyl]-2-(4-isopropylsulfonylphenyl)-5H-pyrrolo[2,3-b]pyrazine-7-carboxamide]",> 1000 nM
3,"CC(C)S(=O)(=O)c1ccc(-c2cnc3[nH]cc(C(=O)N4CC5CCC(C4)O5)c3n2)cc1 [Compound I-116, [2-(4-isopropylsulfonylphenyl)-5H-pyrrolo[2,3-b]pyrazin-7-yl]-(8-oxa-3-azabicyclo[3.2.1]octan-3-yl)methanone]",> 1000 nM
4,"CC(C)S(=O)(=O)c1ccc(-c2cnc3[nH]cc(C(=O)N4CCOCC4)c3n2)cc1 [Compound I-120, [2-(4-isopropylsulfonylphenyl)-5H-pyrrolo[2,3-b]pyrazin-7-yl]-morpholino-methanone]",> 2500 nM
5,"CC(C)S(=O)(=O)c1ccc(-c2cnc3[nH]cc(C(=O)N(CCO)C4CCCCC4)c3n2)cc1 [Compound I-121, N-cyclohexyl-N-(2-hydroxyethyl)-2-(4-isopropylsulfonylphenyl)-5H-pyrrolo[2,3-b]pyrazine-7-carboxamide]",> 1000 nM
6,"CC(C)S(=O)(=O)c1ccc(-c2cnc3[nH]cc(C(=O)N4CCOc5ccccc5C4)c3n2)cc1 [Compound I-130, 3,5-dihydro-2H-1,4-benzoxazepin-4-yl-[2-(4-isopropylsulfonylphenyl)-5H-pyrrolo[2,3-b]pyrazin-7-yl]methanone]",> 250 nM
7,"CC(C)S(=O)(=O)c1ccc(-c2cnc3[nH]cc(C(=O)N(CC(N)=O)C4CCCC4)c3n2)cc1 [Compound I-131, N-(2-amino-2-oxo-ethyl)-N-cyclopentyl-2-(4-isopropylsulfonylphenyl)-5H-pyrrolo[2,3-b]pyrazine-7-carboxamide]",> 40 nM
8,"CC(C)S(=O)(=O)c1ccc(-c2cnc3[nH]cc(C(=O)N4CCN(C(=O)OC(C)(C)C)CC4)c3n2)cc1 [Compound I-132, tert-butyl 4-[2-(4-isopropylsulfonylphenyl)-5H-pyrrolo[2,3-b]pyrazine-7-carbonyl]piperazine-1-carboxylate]",> 2500 nM
9,"CC(C)S(=O)(=O)c1ccc(-c2cnc3[nH]cc(C(=O)Nc4cc(C(C)(C)C)on4)c3n2)cc1 [Compound I-133, N-(5-tert-butylisoxazol-3-yl)-2-(4-isopropylsulfonylphenyl)-5H-pyrrolo[2,3-b]pyrazine-7-carboxamide]",> 40 nM
10,"CC(C)S(=O)(=O)c1ccc(-c2cnc3[nH]cc(C(=O)N4CCCN(C(=O)OC(C)(C)C)CC4)c3n2)cc1 [Compound I-134, tert-butyl 4-[2-(4-isopropylsulfonylphenyl)-5H-pyrrolo[2,3-b]pyrazine-7-carbonyl]-1,4-diazepane-1-carboxylate]",> 40 nM
11,"CC(C)S(=O)(=O)c1ccc(-c2cnc3[nH]cc(C(=O)N4CCCNCC4)c3n2)cc1 [Compound I-136, 1,4-diazepan-1-yl-[2-(4-isopropylsulfonylphenyl)-5H-pyrrolo[2,3-b]pyrazin-7-yl]methanone]",> 250 nM
12,"CC(C)S(=O)(=O)c1ccc(-c2cnc3[nH]cc(C(=O)N4CCNCC4)c3n2)cc1 [Compound I-137, [2-(4-isopropylsulfonylphenyl)-5H-pyrrolo[2,3-b]pyrazin-7-yl]-piperazin-1-yl-methanone]",> 250 nM
